Test results published in ChEMBL document CHEMBL3217691, “Discovery and optimization of efficacious neutral 4-amino-6-biphenyl-7,8-dihydropyrimido[5,4-f][1,4]oxazepin-5-one diacylglycerol acyl transferase-1 (DGAT1) inhibitors” (Medchemcomm, 2013).

Experiments:
in vitro [1] = details: rat, hepatocytes
physchem = details: buffer, pH 7.4
[2] = Oral bioavailability in Han Wistar rat at 2.3 to […]; assay type: ADME, organism-based; details: in vivo
in vitro [3] = details: human, Caco-2
in vivo = details: Han Wistar, rat, iv
[4] = Oral bioavailability in dog at 0.5 mg/kg; assay type: ADME, organism-based, Canis lupus familiaris; details: in vivo
[5] = Half life in dog at 0.5 mg/kg, iv; assay type: ADME, organism-based, Canis lupus familiaris; set-up: dose 0.5 mg/kg, route intravenous; details: in vivo
[6] = Half life in mouse at 2 mg/kg, iv; assay type: ADME, organism-based; set-up: dose 2 mg/kg, route intravenous; details: in vivo
[7] = Half life in rat at 2 mg/kg, po; assay type: ADME, organism-based; set-up: dose 2 mg/kg, route oral; details: in vivo
[8] = Clearance in rat plasma at 1 mg/kg, iv and 2 mg/kg, po; assay type: ADME, organism-based
[9] = Half life in mouse at 2 mg/kg, po; assay type: ADME, organism-based; set-up: dose 2 mg/kg, route oral; details: in vivo
[10] = Half life in rat at 1 mg/kg, iv; assay type: ADME, organism-based; set-up: dose 1 mg/kg, route intravenous; details: in vivo
Mus musculus = assay: Volume of distribution at steady state in mouse plasma at 2 mg/kg, iv and po; assay type: ADME, organism-based; set-up: dose 2 mg/kg, route oral; details: in vivo
Canis familiaris = assay: Volume of distribution at steady state in dog plasma at 0.5 mg/kg, iv and po; assay type: ADME, organism-based, Canis lupus familiaris; set-up: dose 0.5 mg/kg, route oral; details: in vivo
[11] = Oral bioavailability in rat at 2 mg/kg; assay type: ADME, organism-based; details: in vivo
[12] = Volume of distribution at steady state in rat plasma at 1 mg/kg, iv and 2 mg/kg, po; assay type: ADME, organism-based; details: read-out: Vdss
[13] = Oral bioavailability in mouse at 2 mg/kg; assay type: ADME, organism-based; details: in vivo

Compound	hepatocyte CLint (in vitro [1])	logD (physchem)	bioavailability ([2]; at 2.3 to […])	Papp A→B (in vitro [3])	further results
Nc1ncnc2c1C(=O)N(c1ccc(-c3ccc(CC(=O)O)cc3Cl)cc1)CCO2	14 µL/min/1e6 cells	-0.4	–	–	–
NC(=O)Cc1ccc(-c2ccc(N3CCOc4ncnc(N)c4C3=O)cc2)c(Cl)c1	35 µL/min/1e6 cells	1.3	–	–	–
Nc1ncnc2c1C(=O)N(c1ccc(-c3ccc(CC(=O)N4CC[C@@H](O)C4)cc3Cl)cc1)CCO2	–	1.1	15%	1.1 ×10⁻⁶ cm/s	–
Nc1ncnc2c1C(=O)N(c1ccc(-c3ccc(CC(=O)N4CC(O)C4)cc3Cl)cc1)CCO2	< 3.1 µL/min/1e6 cells	1.1	–	–	–
Nc1ncnc2c1C(=O)N(c1ccc(-c3ccc(CC(=O)N4CCNC(=O)C4)cc3Cl)cc1)CCO2	–	0.9	3%	–	–
CS(=O)(=O)Cc1ccc(-c2ccc(N3CCOc4ncnc(N)c4C3=O)cc2)c(Cl)c1	< 2.8 µL/min/1e6 cells	–	61%	–	clearance (in vivo): 5 mL/min/kg
CC(=O)N(C)Cc1ccc(-c2ccc(N3CCOc4ncnc(N)c4C3=O)cc2)c(Cl)c1	11 µL/min/1e6 cells	1.9	–	19.7 ×10⁻⁶ cm/s	–
CC(=O)NCc1ccc(-c2ccc(N3CCOc4ncnc(N)c4C3=O)cc2)c(Cl)c1	–	1.8	100%	14.5 ×10⁻⁶ cm/s	–
CN(Cc1ccc(-c2ccc(N3CCOc4ncnc(N)c4C3=O)cc2)c(Cl)c1)S(C)(=O)=O	5.9 µL/min/1e6 cells	–	28%	–	clearance (in vivo): 5 mL/min/kg
CS(=O)(=O)NCc1ccc(-c2ccc(N3CCOc4ncnc(N)c4C3=O)cc2)c(Cl)c1	–	1.8	21%	11.3 ×10⁻⁶ cm/s	–
Nc1ncnc2c1C(=O)N(c1ccc(-c3ccc(Cn4cccnc4=O)cc3Cl)cc1)CCO2	18.4 µL/min/1e6 cells	–	–	–	–
Nc1ncnc2c1C(=O)N(c1ccc(-c3ccc(CN4CC[C@H](O)C4=O)cc3Cl)cc1)CCO2	< 2 µL/min/1e6 cells	1.1	–	6.4 ×10⁻⁶ cm/s	–
CN(Cc1ccc(-c2ccc(N3CCOc4ncnc(N)c4C3=O)cc2)c(Cl)c1)C(=O)CN	4.9 µL/min/1e6 cells	0.1	–	0.2 ×10⁻⁶ cm/s	–
CN(Cc1ccc(-c2ccc(N3CCOc4ncnc(N)c4C3=O)cc2)c(Cl)c1)C(=O)CCN	< 2 µL/min/1e6 cells	-0.5	–	0.3 ×10⁻⁶ cm/s	–
CN(Cc1ccc(-c2ccc(N3CCOc4ncnc(N)c4C3=O)cc2)c(Cl)c1)C(=O)CCCN	< 2 µL/min/1e6 cells	-1	–	0.2 ×10⁻⁶ cm/s	–
Nc1ncnc2c1C(=O)N(c1ccc(-c3ccccc3Cl)cc1)CCO2	11.1 µL/min/1e6 cells	2.9	65%	32.5 ×10⁻⁶ cm/s	clearance (in vivo): 21 mL/min/kg
N#Cc1ccc(-c2ccc(N3CCOc4ncnc(N)c4C3=O)cc2)c(Cl)c1	4.8 µL/min/1e6 cells	2.4	–	48.2 ×10⁻⁶ cm/s	–

Compound	hepatocyte CLint (in vitro [1])	logD (physchem)	bioavailability ([2]; at 2.3 to […])	Papp A→B (in vitro [3])	further results
Cc1ccc(-c2ccc(N3CCOc4ncnc(N)c4C3=O)cc2)c(Cl)c1	–	3.5	14%	16.6 ×10⁻⁶ cm/s	–
Nc1ncnc2c1C(=O)N(c1ccc(-c3ccc(CO)cc3Cl)cc1)CCO2	–	–	–	16.8 ×10⁻⁶ cm/s	–
Nc1ncnc2c1C(=O)N(c1ccc(-c3ccc(C(F)F)cc3Cl)cc1)CCO2	–	3.2	150%	–	–
Nc1ncnc2c1C(=O)N(c1ccc(-c3ccc(Cl)cc3Cl)cc1)CCO2	–	> 3.9	–	–	bioavailability [2]: 87%
Nc1ncnc2c1C(=O)N(c1ccc(-c3cccc(Cl)c3Cl)cc1)CCO2	9.3 µL/min/1e6 cells	3.8	150%	–	clearance (in vivo): 24 mL/min/kg
N#Cc1cccc(-c2ccc(N3CCOc4ncnc(N)c4C3=O)cc2)c1Cl	4.6 µL/min/1e6 cells	2.5	–	54.8 ×10⁻⁶ cm/s	–
Nc1ncnc2c1C(=O)N(c1ccc(-c3cc(Cl)ccc3Cl)cc1)CCO2	9.5 µL/min/1e6 cells	3.7	110%	16.2 ×10⁻⁶ cm/s	clearance (in vivo): 12 mL/min/kg
Nc1ncnc2c1C(=O)N(c1ccc(-c3ccccc3)cc1)CCO2	–	2.4	–	> 10 ×10⁻⁶ cm/s	–
Cc1ccccc1-c1ccc(N2CCOc3ncnc(N)c3C2=O)cc1	–	2.7	–	> 10 ×10⁻⁶ cm/s	–
Nc1ncnc2c1C(=O)N(c1ccc(-c3c(F)cccc3F)cc1)CCO2	–	2.5	–	> 10 ×10⁻⁶ cm/s	–
Nc1ncnc2c1C(=O)N(c1ccc(-c3ccccc3Cl)c(F)c1)CCO2	–	3	14%	> 10 ×10⁻⁶ cm/s	clearance (in vivo): 18 mL/min/kg
Cc1cccc(Cl)c1-c1ccc(N2CCOc3ncnc(N)c3C2=O)cc1	–	3.4	–	> 10 ×10⁻⁶ cm/s	–
Nc1ncnc2c1C(=O)N(c1ccc(-c3c(F)cccc3F)c(F)c1)CCO2	–	2.9	–	> 10 ×10⁻⁶ cm/s	–
Nc1ncnc2c1C(=O)N(c1ccc(-c3ncccc3Cl)cc1)CCO2	–	1.5	68%	> 10 ×10⁻⁶ cm/s	–
N#Cc1cccc(Cl)c1-c1ccc(N2CCOc3ncnc(N)c3C2=O)cc1	–	2.1	–	> 10 ×10⁻⁶ cm/s	–
Nc1ncnc2c1C(=O)N(c1ccc(-c3ccccc3F)cc1)CCO2	< 2 µL/min/1e6 cells	–	93%	> 10 ×10⁻⁶ cm/s	bioavailability [4]: 76%; half-life [5]: 1.2 h; half-life [6]: 3.5 h; half-life [7]: 3.3 h; clearance [8]: 7.3 mL/min/kg; half-life [9]: 3.1 h; half-life [10]: 6.7 h; Vdss (Mus musculus): 0.6 L/kg; Vdss (Canis familiaris): 2.4 L/kg; clearance (in vivo): 7 mL/min/kg; bioavailability [11]: 93%; Vd [12]: 1.9 L/kg; bioavailability [13]: > 100%
